Data taken from patent EP3820512B1, “IMMUNOMODULATING COMPOSITIONS COMPRISING OLIGOSACCHARIDE DERIVATIVES” (priority 2018, dated 2020).
“Also recorded” adds a separate entry of the source.

What was measured:
[1] = system: hyperoxia-induced lung injury in mice; experiment: Hyperoxia induced ALI model; assay type: in vivo, C57BL/6 mice
Experimental: Male C57BL/6 mice (Jackson Laboratories,) 12-15 weeks old, 25 - 28 gms, housed up to 5 per cage were used.
Hyperoxia induced ALI model: The ARDS model consists of exposing adult mice in 100% oxygen for 48h followed by injecting with test compounds. Adult mice (N=5) were housed in plexi chamber with a constant and continuous supply of 100% oxygen for 48h. […] The mice were sacrificed after 48 h to harvest lung tissues and collect (BAL) fluid.

[2] = system: VEGF induced tube formation in HUVECs; experiment: Anti-angiogenic activity, Tube Formation kit, VEGF induced; assay type: cell-based, human; conditions: VEGF 100ng/mL
Experimental: Selected TLR2/4 antagonist compounds 2, 6, 7, 8, 14, 17 and 32 were evaluated for anti-angiogenic activity using the Tube Formation kit (Cat#3470-096-K). VEGF (100ng/mL) was used as positive control. These compounds have potential applications in diseases associated with pathological angiogenesis such as solid tumor, […], diabetic retinopathy as well as AMD.

[3] = target: TLR4 (Homo sapiens, UniProt O00206); experiment: TLR4 inhibitory and activating activity in THP-1 cells at low and high concentrations; assay type: cell-based; set-up: endogenous in cells; host or cells: THP-1 (human monocytic) cells
[4] = target: T1, TLR2 (Homo sapiens, UniProt O60603); experiment: TLR2 activity in PMA-stimulated THP-1 monocyte cells, ELISA of cell lysate; assay type: cell-based; conditions: THP-1 cells
T1 construct: endogenous in cells; host or cells: THP-1 monocyte cells stimulated with PMA
Experimental: THP-1 monocyte cells (1×10^5) were stimulated with 200nM of PMA for 48h and treated with different concentrations of test compounds. The TLR2 activity was measured after 24 h from the cell lysate using ELISA.

[5] = system: P. aeruginosa (ATCC-10145 GFP) infected skin wounds; experiment: Murine study of skin wound infection; assay type: in vivo, C57BL6 mice
Experimental: Five groups of C57BL/6 mice (8-10 weeks old, n = 4) were wounded on the dorsal surface. 25µl containing 10^6 CFU/mL P. aeruginosa in a PBS suspension were pipetted onto the wound and allowed to absorb for at least 3 min. […] Subsequently and for the next 13 days, infected wounds were treated each alternate day with colistin, or with test compounds.
Along with that less focal inflammation is observed in compound treated groups vs PA group.

[6] = system: human peripheral blood monocytes; experiment: IL-10 production in human peripheral blood monocytes; assay type: cell-based; conditions: after 48 h
[7] = system: TLR7/8; experiment: TLR7/8 modulation: cytokine ELISA in hPBMC, alone or with TLR7/8 ligand CL075; assay type: cell-based, human
Excerpt: Compound 8 modulates the TLR7/8 activities in a concentration dependent manner.

[8] = system: HUVECs; experiment: Cytotoxicity in HUVECs, MTT cell proliferation kit; assay type: cell-based, human; conditions: 100 µM, 24h
Experimental: Selected TLR2/4 antagonist compounds 2, 6, 7, 8, 14, 17 and 32 were evaluated for cytotoxicity in HUVECs at 100 µM concentration. The cells were treated with compounds and incubated for 24h. Cell viability was assessed using MTT cell proliferation kit (Promega). All the compounds were not toxic to HUVECs (FIG. 15).

[9] = target: T2, TLR9 (Homo sapiens, UniProt Q9NR96); experiment: TLR9 antagonism: IFN-α ELISA in hPBMC with TLR9 ligand ODN2216; assay type: cell-based; conditions: in combination with ODN2216, hPBMC, 48h
T2 construct: endogenous in cells; host or cells: hPBMC (human peripheral blood monocytes)
T2 sequence (Q9NR96 26-1032): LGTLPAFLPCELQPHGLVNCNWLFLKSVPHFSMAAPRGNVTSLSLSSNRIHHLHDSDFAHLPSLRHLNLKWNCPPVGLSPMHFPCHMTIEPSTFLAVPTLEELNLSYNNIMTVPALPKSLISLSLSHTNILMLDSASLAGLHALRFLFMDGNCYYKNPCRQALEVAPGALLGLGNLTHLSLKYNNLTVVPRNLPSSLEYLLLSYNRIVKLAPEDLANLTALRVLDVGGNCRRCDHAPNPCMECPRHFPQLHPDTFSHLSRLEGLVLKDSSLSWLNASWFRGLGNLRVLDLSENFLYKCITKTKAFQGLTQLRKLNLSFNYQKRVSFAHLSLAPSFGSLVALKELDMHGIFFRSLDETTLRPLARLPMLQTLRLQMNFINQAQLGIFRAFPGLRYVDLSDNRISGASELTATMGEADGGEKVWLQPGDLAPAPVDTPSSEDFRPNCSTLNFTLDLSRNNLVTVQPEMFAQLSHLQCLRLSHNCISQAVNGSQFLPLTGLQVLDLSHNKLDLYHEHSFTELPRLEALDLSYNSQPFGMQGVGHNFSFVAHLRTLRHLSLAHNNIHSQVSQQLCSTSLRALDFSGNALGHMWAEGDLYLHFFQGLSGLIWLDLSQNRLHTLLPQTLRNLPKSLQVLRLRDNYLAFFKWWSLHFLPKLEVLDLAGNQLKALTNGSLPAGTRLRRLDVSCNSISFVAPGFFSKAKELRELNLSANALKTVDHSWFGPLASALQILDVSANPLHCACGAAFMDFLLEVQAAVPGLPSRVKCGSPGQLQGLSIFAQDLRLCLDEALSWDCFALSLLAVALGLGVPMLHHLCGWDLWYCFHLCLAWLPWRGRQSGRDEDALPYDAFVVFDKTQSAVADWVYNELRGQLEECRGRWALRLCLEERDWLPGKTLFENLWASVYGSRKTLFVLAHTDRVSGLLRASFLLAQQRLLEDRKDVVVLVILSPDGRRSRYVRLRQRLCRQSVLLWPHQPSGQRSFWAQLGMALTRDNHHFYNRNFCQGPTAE
Experimental: Compound 8 antagonizes the TLR9 activities and downregulates the production of IFN-α in combination with TLR9 ligand ODN2216 in hPBMC after 48h of treatment as detected by ELISA (FIG. 11).

[10] = target: T3, TLR6 (Homo sapiens, UniProt Q9Y2C9); experiment: TLR6 stimulation: IL-6 ELISA in hPBMC with TLR6 ligand Pam2CSK4; assay type: cell-based; conditions: in combination with Pam2CSK4, hPBMC, 24h
T3 construct: endogenous in cells; host or cells: hPBMC (human peripheral blood monocytes)
Experimental: Compound 8 stimulates the TLR6 activities and upregulates the production of IL-6 cytokine in combination with TLR6 ligand Pam2CSK4 in hPBMC after 24h of treatment as detected by ELISA (FIG. 9).

[11] = system: hPBMC; experiment: Cytotoxicity in hPBMC, MTT cell proliferation kit; assay type: cell-based, human; conditions: 0.1, 1.0, 10, 100 and 1000 µM, 24h
Experimental: The cells were treated with compounds and incubated for 24h. Cell viability was assessed using MTT cell proliferation kit (Promega).

TLR4, sequence (O00206 24-839): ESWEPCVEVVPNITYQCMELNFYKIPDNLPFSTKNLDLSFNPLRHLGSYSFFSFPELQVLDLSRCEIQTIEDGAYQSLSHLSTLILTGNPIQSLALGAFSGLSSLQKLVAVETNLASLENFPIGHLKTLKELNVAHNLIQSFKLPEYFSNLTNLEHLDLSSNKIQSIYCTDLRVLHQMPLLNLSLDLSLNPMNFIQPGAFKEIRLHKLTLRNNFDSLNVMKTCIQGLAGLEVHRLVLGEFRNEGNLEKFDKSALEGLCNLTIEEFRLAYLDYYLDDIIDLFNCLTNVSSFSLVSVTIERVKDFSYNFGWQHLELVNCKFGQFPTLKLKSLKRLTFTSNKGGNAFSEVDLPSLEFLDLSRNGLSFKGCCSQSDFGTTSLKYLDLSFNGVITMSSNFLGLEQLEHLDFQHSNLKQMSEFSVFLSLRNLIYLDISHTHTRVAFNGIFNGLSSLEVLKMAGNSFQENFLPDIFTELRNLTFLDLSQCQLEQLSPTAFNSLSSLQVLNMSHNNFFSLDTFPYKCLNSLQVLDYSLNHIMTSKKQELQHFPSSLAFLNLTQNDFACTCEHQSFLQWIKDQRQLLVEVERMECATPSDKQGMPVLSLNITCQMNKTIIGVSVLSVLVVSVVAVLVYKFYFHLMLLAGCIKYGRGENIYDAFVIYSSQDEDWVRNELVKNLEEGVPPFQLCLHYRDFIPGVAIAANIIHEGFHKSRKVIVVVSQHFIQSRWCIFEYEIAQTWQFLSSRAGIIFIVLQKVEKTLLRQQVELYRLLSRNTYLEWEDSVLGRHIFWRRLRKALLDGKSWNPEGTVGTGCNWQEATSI
TLR4, sequence (Q9Y6Y9 17-160 partner limits assumed): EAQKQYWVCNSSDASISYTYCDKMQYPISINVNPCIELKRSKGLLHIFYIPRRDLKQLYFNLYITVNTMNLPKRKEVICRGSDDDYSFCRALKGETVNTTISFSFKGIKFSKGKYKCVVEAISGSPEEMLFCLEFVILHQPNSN
T1 sequence (O60603 21-784): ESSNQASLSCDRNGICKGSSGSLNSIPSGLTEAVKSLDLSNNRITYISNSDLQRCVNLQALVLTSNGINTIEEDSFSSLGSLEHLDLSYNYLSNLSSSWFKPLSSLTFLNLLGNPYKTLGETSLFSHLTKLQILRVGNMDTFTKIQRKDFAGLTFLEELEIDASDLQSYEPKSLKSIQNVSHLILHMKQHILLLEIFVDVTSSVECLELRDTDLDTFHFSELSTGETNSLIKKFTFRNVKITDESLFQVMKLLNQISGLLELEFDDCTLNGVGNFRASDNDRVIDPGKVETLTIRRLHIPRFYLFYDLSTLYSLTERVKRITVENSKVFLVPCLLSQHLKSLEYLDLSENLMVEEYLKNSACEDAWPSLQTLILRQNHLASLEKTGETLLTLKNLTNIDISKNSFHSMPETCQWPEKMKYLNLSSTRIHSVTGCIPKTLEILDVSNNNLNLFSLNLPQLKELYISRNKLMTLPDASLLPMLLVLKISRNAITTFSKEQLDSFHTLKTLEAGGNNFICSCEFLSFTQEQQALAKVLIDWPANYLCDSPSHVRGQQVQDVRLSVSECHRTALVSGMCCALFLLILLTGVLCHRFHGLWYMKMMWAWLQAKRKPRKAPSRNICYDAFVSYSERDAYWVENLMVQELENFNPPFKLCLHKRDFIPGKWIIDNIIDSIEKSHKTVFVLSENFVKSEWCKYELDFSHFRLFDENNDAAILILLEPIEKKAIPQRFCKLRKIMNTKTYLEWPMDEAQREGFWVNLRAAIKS
T3 sequence (Q9Y2C9 32-796): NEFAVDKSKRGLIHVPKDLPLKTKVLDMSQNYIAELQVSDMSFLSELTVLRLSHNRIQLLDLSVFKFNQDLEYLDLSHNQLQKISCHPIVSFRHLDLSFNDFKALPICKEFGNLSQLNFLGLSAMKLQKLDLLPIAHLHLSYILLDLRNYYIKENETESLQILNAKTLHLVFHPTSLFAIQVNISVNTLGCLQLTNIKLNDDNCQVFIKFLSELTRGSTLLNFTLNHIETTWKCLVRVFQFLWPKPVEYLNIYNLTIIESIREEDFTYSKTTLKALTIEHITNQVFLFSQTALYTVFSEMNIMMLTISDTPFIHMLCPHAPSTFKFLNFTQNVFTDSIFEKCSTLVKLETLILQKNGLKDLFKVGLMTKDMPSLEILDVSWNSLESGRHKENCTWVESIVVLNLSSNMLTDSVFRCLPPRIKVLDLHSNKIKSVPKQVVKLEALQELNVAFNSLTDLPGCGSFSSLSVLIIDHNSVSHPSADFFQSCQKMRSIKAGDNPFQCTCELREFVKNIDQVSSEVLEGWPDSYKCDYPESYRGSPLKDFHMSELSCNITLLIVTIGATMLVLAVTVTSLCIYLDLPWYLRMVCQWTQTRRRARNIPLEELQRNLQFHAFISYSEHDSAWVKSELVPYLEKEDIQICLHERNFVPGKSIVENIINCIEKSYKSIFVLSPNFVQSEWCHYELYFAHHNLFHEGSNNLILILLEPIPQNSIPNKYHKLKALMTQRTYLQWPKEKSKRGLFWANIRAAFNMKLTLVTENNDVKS
T3 sequence (O60603 21-784 partner): as the sequence (O60603 21-784) above

Question: Which “protection against hyperoxia induced lung injury” value ([1]; IP 10 mg/kg, two doses, 100% oxygen 48h) does the source give for `CC(=O)N[C@H]1[C@H](Oc2ccc([N+](=O)[O-])cc2)O[C@H](CO)[C@@H](O)[C@@H]1O` [Compound 8, p-Nitrophenyl 2-acetamido-2-deoxy-β-D-glucopyranoside] here?
Answer: significant protection

Question: And the hyperoxia-induced lung inflammation ([1]; IP injection)?
Answer: ameliorated

Question: What about the “VEGF induced tube formation” value [2] of the same molecule?
Answer: significantly decreased

Question: And the “% inhibition over control TLR4” value ([3]; Concentration 1-10 µM, THP-1 cells)?
Answer: +++ (+++ means that the % of inhibition or activation is in the range of 75-95%)

Question: And the “% activation over control TLR4” value ([3]; Concentration 75-100 µM, THP-1 cells)?
Answer: ++ (++ means that the % of inhibition or activation is in the range of 25-75%)

Question: And the TLR4 modulatory activity ([3]; summary in words)?
Answer: concentration dependent TLR4 modulatory activity

Question: What about the “% inhibition over control TLR2” value ([4]; Concentration 1-10 µM) of the same molecule?
Answer: + (+ means that the % of inhibition or activation is in the range of 15-25%)

Question: What about the “% inhibition over control TLR2” value ([4]; Concentration 75-100 µM) of the same molecule?
Answer: ++ (++ means that the % of inhibition or activation is in the range of 25-75%)

Question: And the “CFU in tissues / bacterial counts” value ([5]; 13 days post infection, vs untreated control)?
Answer: decreased; also recorded: statistically significant reduction

Question: And the “Re-epithelialization and granulation tissue” value ([5]; H&E histology, day 13 post-injury, vs controls, p=0.050 (Colistin, compound 1), p=0.073 (compound 8))?
Answer: borderline non-significant

Question: And the “closure of P. aeruginosa infected skin wounds” value ([5]; topical, each alternate day, day 13, compounds 100µM / 100µg /ml, Colistin 4µg/ml)?
Answer: effectively closed; also recorded: complete closure

Question: What about the IL-10 production ([6]; 0.1-1.0 µM) of the same molecule?
Answer: increase

Question: And the IL-10 production ([6]; 10-100 µM)?
Answer: decrease

Question: What about the IL-10 protein level ([7]; 0.1 µM to <1 µM, alone or in combination with CL075, hPBMC, 24h, ELISA) of the same molecule?
Answer: downregulate

Question: What about the “production of IL-1β” value ([7]; 1.0 µM, alone and in combination with CL075, hPBMC) of the same molecule?
Answer: significantly stimulated

Question: And the “cytotoxicity in HUVECs (cell viability)” value [8]?
Answer: not toxic

Question: What about the “production of IFN-α” value [9] of the same molecule?
Answer: downregulates

Question: And the “production of IL-6 cytokine” value [10]?
Answer: upregulates

Question: And the “cytotoxicity in hPBMC (cell viability)” value [11]?
Answer: not toxic
